Reference: ChEMBL document CHEMBL1145390, “Synthesis and preliminary biological characterization of new semisynthetic derivatives of ramoplanin” (J Med Chem, 2007)
Converted amounts (≈) assume the structure as drawn.

Legend:
Enterococcus faecalis [1] = assay: Antibacterial activity against Enterococcus faecalis after 24 hrs by broth microdilution method; type: functional; conditions: read-out: MIC
Staphylococcus aureus [2] = assay: Antibacterial activity against Staphylococcus aureus Smith after 24 hrs by broth microdilution method; type: functional; conditions: read-out: MIC
Staphylococcus aureus [3] = assay: Antibacterial activity against methicillin-resistant Staphylococcus aureus clinical isolate after 24 hrs by broth microdilution method; type: functional; conditions: read-out: MIC
Staphylococcus aureus [4] = assay: Antibacterial activity against methicillin-resistant and vancomycin-intermediate resistant Staphylococcus aureus clinical isolate after 24 hrs by broth microdilution method; type: functional; conditions: read-out: MIC
Staphylococcus aureus [5] = assay: Antibacterial activity against vancomycin-intermediate resistant Staphylococcus aureus clinical isolate after 24 hrs by broth microdilution method; type: functional
Streptococcus pyogenes = assay: Antibacterial activity against Streptococcus pyogenes C203 after 24 hrs by broth microdilution method; type: functional; conditions: C203, 24 h, read-out: MIC
Enterococcus faecium [6] = assay: Antibacterial activity against Enterococcus faecium after 24 hrs by broth microdilution method; type: functional; conditions: read-out: MIC
Enterococcus faecium [7] = assay: Antibacterial activity against vancomycin A-resistant Enterococcus faecium clinical isolate after 24 hrs by broth microdilution method; type: functional; conditions: read-out: MIC
Escherichia coli = assay: Antibacterial activity against Escherichia coli SKF-12140 after 24 hrs by broth microdilution method; type: functional; conditions: read-out: MIC
Candida albicans = assay: Antifungal activity against Candida albicans SKF-2270 after 24 hrs by broth microdilution method; type: functional; conditions: read-out: MIC
[8] = Toxicity assessed as hemolysis in erythrocytes at 1200 mg/L; type: cell-based, Erythrocyte; conditions: human, read-out: Activity
Staphylococcus aureus [9] = assay: Antibacterial activity against vancomycin-intermediate resistant Staphylococcus aureus clinical isolate in presence of 30% bovine serum after 24 hrs by broth microdilution method; type: functional
Staphylococcus aureus [10] = assay: Antibacterial activity against Staphylococcus aureus Smith in presence of 30% bovine serum after 24 hrs by broth microdilution method; type: functional
Enterococcus faecalis [11] = assay: Antibacterial activity against vancomycin-resistant Enterococcus faecalis in presence of 30% bovine serum after 24 hrs by broth microdilution method; type: functional
Enterococcus faecium [12] = assay: Antibacterial activity against vancomycin A-resistant Enterococcus faecium clinical isolate in presence of 30% bovine serum after 24 hrs by broth microdilution method; type: functional
[13] = Toxicity assessed as hemolysis in erythrocytes at 600 mg/L; type: cell-based, Erythrocyte; conditions: human, read-out: Activity
[14] = Toxicity assessed as hemolysis in erythrocytes at 300 mg/L; type: cell-based, Erythrocyte; conditions: human, read-out: Activity
[15] = Toxicity assessed as hemolysis in erythrocytes at 400 mg/L; type: cell-based, Erythrocyte; conditions: human, read-out: Activity
[16] = Toxicity assessed as hemolysis in erythrocytes at 200 mg/L; type: cell-based, Erythrocyte; conditions: human, read-out: Activity
[17] = Toxicity assessed as hemolysis in erythrocytes at 100 mg/L; type: cell-based, Erythrocyte; conditions: human, read-out: Activity
Enterococcus faecalis [18] = assay: Antibacterial activity against vancomycin A-resistant Enterococcus faecalis after 24 hrs by broth microdilution method; type: functional; conditions: read-out: MIC
[19] = Toxicity assessed as hemolysis in erythrocytes at 180 mg/L; type: cell-based, Erythrocyte; conditions: human, erythrocytes; read-out: Activity
[20] = Toxicity assessed as hemolysis in erythrocytes at 90 mg/L; type: cell-based, Erythrocyte; conditions: human, erythrocytes; read-out: Activity

Structure (SMILES)	MIC (Enterococcus faecalis [1])	MIC (Staphylococcus aureus [2])	MIC (Staphylococcus aureus [3])	MIC (Staphylococcus aureus [4])	MIC (Staphylococcus aureus [5])	MIC (Streptococcus pyogenes)	MIC (Enterococcus faecium [6])	MIC (Enterococcus faecium [7])	MIC (Escherichia coli)	MIC (Candida albicans)	MIC (Staphylococcus aureus [9])	MIC (Staphylococcus aureus [10])	MIC (Enterococcus faecalis [11])	MIC (Enterococcus faecium [12])	hemolysis at 400 mg/L [15]	hemolysis at 200 mg/L [16]	hemolysis at 100 mg/L [17]	also measured
Cc1cc(C)cc(CC(=O)N[C@@H](CC(N)=O)C(=O)NC[C@@H]2C(=O)N[C@H](c3ccc(O)cc3)C(=O)N[C@H](CCCN)C(=O)N[C@H](C(C)C)C(=O)N[C@@H](c3ccc(O)cc3)C(=O)N[C@H](c3ccc(O)cc3)C(=O)N[C@@H]([C@@H](C)O)C(=O)N[C@@H](Cc3ccccc3)C(=O)N[C@H](CCCN)C(=O)N[C@@H](c3ccc(O[C@H]4O[C@H](CO)[C@@H](O)[C@H](O)[C@@H]4O[C@H]4O[C@H](CO)[C@@H](O)[C@H](O)[C@@H]4O)cc3)C(=O)N[C@H]([C@@H](C)O)C(=O)N[C@@H](c3ccc(O)cc3)C(=O)NCC(=O)N[C@@H](CC(C)C)C(=O)N[C@H](C)C(=O)N[C@@H](c3ccc(O)c(Cl)c3)C(=O)O[C@@H]2C(N)=O)c1	≤ 0.125 µg/mL	≤ 0.125 µg/mL	≤ 0.125 µg/mL	1 µg/mL (≈ 0.388 µM)	0.5 µg/mL (≈ 0.194 µM)	≤ 0.125 µg/mL	0.25 µg/mL (≈ 0.097 µM)	≤ 0.125 µg/mL	> 128 µg/mL	> 128 µg/mL	4 µg/mL	1 µg/mL	1 µg/mL	2 µg/mL	–	–	–	hemolysis at 1200 mg/L [8]: 87%; hemolysis at 600 mg/L [13]: 18%; hemolysis at 300 mg/L [14]: 0%
CC(C)/C=C/C=C\CC(=O)N[C@@H](CC(N)=O)C(=O)NC[C@@H]1C(=O)N[C@H](c2ccc(O)cc2)C(=O)N[C@H](CCCN)C(=O)N[C@H](C(C)C)C(=O)N[C@@H](c2ccc(O)cc2)C(=O)N[C@H](c2ccc(O)cc2)C(=O)N[C@@H]([C@@H](C)O)C(=O)N[C@@H](Cc2ccccc2)C(=O)N[C@H](CCCN)C(=O)N[C@@H](c2ccc(O[C@H]3O[C@H](CO)[C@@H](O)[C@H](O)[C@@H]3O[C@H]3O[C@H](CO)[C@@H](O)[C@H](O)[C@@H]3O)cc2)C(=O)N[C@H]([C@@H](C)O)C(=O)N[C@@H](c2ccc(O)cc2)C(=O)NCC(=O)N[C@@H](CC(C)C)C(=O)N[C@H](C)C(=O)N[C@@H](c2ccc(O)c(Cl)c2)C(=O)O[C@@H]1C(N)=O	≤ 0.125 µg/mL	≤ 0.125 µg/mL	≤ 0.125 µg/mL	1 µg/mL (≈ 0.39 µM)	0.5 µg/mL (≈ 0.195 µM)	≤ 0.125 µg/mL	0.25 µg/mL (≈ 0.0974 µM)	≤ 0.125 µg/mL	> 128 µg/mL	> 128 µg/mL	2 µg/mL	0.5 µg/mL	0.5 µg/mL	1 µg/mL	97%	81%	64%	–
CC(C)C[C@@H]1NC(=O)CNC(=O)[C@H](c2ccc(O)cc2)NC(=O)[C@@H]([C@@H](C)O)NC(=O)[C@H](c2ccc(O[C@H]3O[C@H](CO)[C@@H](O)[C@H](O)[C@@H]3O[C@H]3O[C@H](CO)[C@@H](O)[C@H](O)[C@@H]3O)cc2)NC(=O)[C@@H](CCCN)NC(=O)[C@H](Cc2ccccc2)NC(=O)[C@H]([C@@H](C)O)NC(=O)[C@@H](c2ccc(O)cc2)NC(=O)[C@H](c2ccc(O)cc2)NC(=O)[C@@H](C(C)C)NC(=O)[C@@H](CCCN)NC(=O)[C@@H](c2ccc(O)cc2)NC(=O)[C@@H](CNC(=O)[C@H](CC(N)=O)NC(=O)Cc2ccccc2)[C@@H](C(N)=O)OC(=O)[C@H](c2ccc(O)c(Cl)c2)NC(=O)[C@@H](C)NC1=O.Cl	2 µg/mL	1 µg/mL	1 µg/mL	4 µg/mL	2 µg/mL	–	2 µg/mL	1 µg/mL	> 128 µg/mL	> 128 µg/mL	2 µg/mL	1 µg/mL	2 µg/mL	1 µg/mL	2%	0%	3%	MIC (Enterococcus faecalis [18]): 2 µg/mL; hemolysis at 180 mg/L [19]: 0%; hemolysis at 90 mg/L [20]: 0%
CCCCCCCC(=O)N[C@@H](CC(N)=O)C(=O)NC[C@@H]1C(=O)N[C@H](c2ccc(O)cc2)C(=O)N[C@H](CCCN)C(=O)N[C@H](C(C)C)C(=O)N[C@@H](c2ccc(O)cc2)C(=O)N[C@H](c2ccc(O)cc2)C(=O)N[C@@H]([C@@H](C)O)C(=O)N[C@@H](Cc2ccccc2)C(=O)N[C@H](CCCN)C(=O)N[C@@H](c2ccc(O[C@H]3O[C@H](CO)[C@@H](O)[C@H](O)[C@@H]3O[C@H]3O[C@H](CO)[C@@H](O)[C@H](O)[C@@H]3O)cc2)C(=O)N[C@H]([C@@H](C)O)C(=O)N[C@@H](c2ccc(O)cc2)C(=O)NCC(=O)N[C@@H](CC(C)C)C(=O)N[C@H](C)C(=O)N[C@@H](c2ccc(O)c(Cl)c2)C(=O)O[C@@H]1C(N)=O.Cl	0.125 µg/mL	0.125 µg/mL	0.25 µg/mL	2 µg/mL	1 µg/mL	0.06 µg/mL	0.125 µg/mL	< 0.06 µg/mL	> 128 µg/mL	> 128 µg/mL	2 µg/mL	1 µg/mL	1 µg/mL	1 µg/mL	59%	5%	0%	MIC (Enterococcus faecalis [18]): 0.125 µg/mL; hemolysis at 180 mg/L [19]: 16%; hemolysis at 90 mg/L [20]: 0%
CCC/C=C/C=C\CC(=O)N[C@@H](CC(N)=O)C(=O)NC[C@@H]1C(=O)N[C@H](c2ccc(O)cc2)C(=O)N[C@H](CCCN)C(=O)N[C@H](C(C)C)C(=O)N[C@@H](c2ccc(O)cc2)C(=O)N[C@H](c2ccc(O)cc2)C(=O)N[C@@H]([C@@H](C)O)C(=O)N[C@@H](Cc2ccccc2)C(=O)N[C@H](CCCN)C(=O)N[C@@H](c2ccc(O[C@H]3O[C@H](CO)[C@@H](O)[C@H](O)[C@@H]3O[C@H]3O[C@H](CO)[C@@H](O)[C@H](O)[C@@H]3O)cc2)C(=O)N[C@H]([C@@H](C)O)C(=O)N[C@@H](c2ccc(O)cc2)C(=O)NCC(=O)N[C@@H](CC(C)C)C(=O)N[C@H](C)C(=O)N[C@@H](c2ccc(O)c(Cl)c2)C(=O)O[C@@H]1C(N)=O	≤ 0.125 µg/mL	≤ 0.125 µg/mL	≤ 0.125 µg/mL	1 µg/mL (≈ 0.39 µM)	0.5 µg/mL (≈ 0.195 µM)	≤ 0.125 µg/mL	≤ 0.125 µg/mL	–	> 128 µg/mL	> 128 µg/mL	2 µg/mL	0.5 µg/mL	0.5 µg/mL	1 µg/mL	94%	83%	65%	–
CC(C)C/C=C/C=C/CC(=O)N[C@@H](CC(N)=O)C(=O)NC[C@@H]1C(=O)N[C@H](c2ccc(O)cc2)C(=O)N[C@H](CCCN)C(=O)N[C@H](C(C)C)C(=O)N[C@@H](c2ccc(O)cc2)C(=O)N[C@H](c2ccc(O)cc2)C(=O)N[C@@H]([C@@H](C)O)C(=O)N[C@@H](Cc2ccccc2)C(=O)N[C@H](CCCN)C(=O)N[C@@H](c2ccc(O[C@H]3O[C@H](CO)[C@@H](O)[C@H](O)[C@@H]3O[C@H]3O[C@H](CO)[C@@H](O)[C@H](O)[C@@H]3O)cc2)C(=O)N[C@H]([C@@H](C)O)C(=O)N[C@@H](c2ccc(O)cc2)C(=O)NCC(=O)N[C@@H](CC(C)C)C(=O)N[C@H](C)C(=O)N[C@@H](c2ccc(O)c(Cl)c2)C(=O)O[C@@H]1C(N)=O	≤ 0.125 µg/mL	≤ 0.125 µg/mL	≤ 0.125 µg/mL	1 µg/mL (≈ 0.388 µM)	0.5 µg/mL (≈ 0.194 µM)	≤ 0.125 µg/mL	≤ 0.125 µg/mL	–	> 128 µg/mL	> 128 µg/mL	4 µg/mL	1 µg/mL	0.5 µg/mL	1 µg/mL	78%	87%	85%	–
CCc1ccccc1CC(=O)N[C@@H](CC(N)=O)C(=O)N[C@@H]1C(=O)N[C@H](c2ccc(O)cc2)C(=O)N[C@H](CCCN)C(=O)N[C@H]([C@@H](C)O)C(=O)N[C@@H](c2ccc(O)cc2)C(=O)N[C@H](c2ccc(O)cc2)C(=O)N[C@@H]([C@H](C)O)C(=O)N[C@@H](Cc2ccccc2)C(=O)N[C@H](CCCN)C(=O)N[C@@H](c2ccc(O[C@H]3O[C@H](CO)[C@@H](O)[C@H](O)[C@@H]3O[C@H]3O[C@H](CO)[C@@H](O)[C@H](O)[C@@H]3O)cc2)C(=O)N[C@H]([C@@H](C)O)C(=O)N[C@@H](c2ccc(O)cc2)C(=O)NCC(=O)N[C@@H](CC(C)C)C(=O)N[C@H](C)C(=O)N[C@@H](c2ccc(O)c(Cl)c2)C(=O)O[C@@H]1C(N)=O	–	–	–	–	–	–	–	–	–	–	–	–	–	–	–	–	–	hemolysis at 1200 mg/L [8]: 76%; hemolysis at 600 mg/L [13]: 1%; hemolysis at 300 mg/L [14]: 1%
